The nature of data set [1]: PET scans of bone tracers in young healthy rats. The format is in vivo, Wistar rats. The protocol: The tracer NOTA.QS.PAM according to the invention and the clinically established reference tracer DOTA^Zol were labeled with ^68Ga, injected into young healthy Wistar rats, followed by recording of PET scans at intervals of 5 min, 60 min and 120 min after injection.
Both tracers are characterized by renal excretion and low retention in the remaining tissue.

Data set [2] deals with LNCaP tumor. Description: PET preclinical comparative tests of PSMA radiotracers (SUV). As to conditions: 68Ga-labeled tracer; for SUV Nieren: kidneys (Nieren); for SUV Leber: liver (Leber).
In data set [3] the test system is tumor tissue. Description: In vivo and ex vivo investigation of TRAP.QS.PSMA radiotracer. The note with it: ex vivo, compared to [68Ga]Ga-PSMA-11. The protocol:
FIG. 31a-b, 32-36 show the synthesis and measurement results for radiolabeling, stability and in vivo investigations of the radiotracer [^68Ga]Ga-TRAP.QS.PSMA. […] The in vivo studies were carried out with ^68Ga and ^64Cu. From the images it can be seen that, compared to Examples 8 and 10, the accumulation in the kidneys is […] for both radiotracers.

For data set [4], the system named is LNCap cells. The experiment in a line: In vitro IC50 of unlabeled compounds with LNCap cells. Type of data set: cell-based. The source says: Further compounds according to the invention are those of the DATA.QS.PSMA type, the structure of which corresponds to the other compounds listed, with the DATA chelator enabling simpler and milder labeling. In the synthesis shown in FIG. 37, a yield of about 70% is achieved. In the case of radioactive labeling with ^68Ga, a yield of more than 95% is achieved (FIG. 38).

The subject of data set [5] is LNCaP tumor. The experiment in a line: Biological distribution by extraction of organs (ex vivo), PSMA tracers. The format is in vivo, NMRInu/nu nude mice. The note with it: for tumor activity (biological distribution): compared with 68Ga-PSMA-11 and 68Ga-PSMA-617. The source says: In addition, PET was used to carry out preclinical ex vivo tests with the radiotracers of type [^68Ga]Ga-DOTA.QS.PSMA, [^68Ga]Ga-PSMA-11 and [^68Ga] Ga-PSMA-617 on NMRInu/nu nude mice with an LNCap tumor. […] The results obtained underline those obtained in the in vivo tests.

Data set [6] addresses T1, FAP (Homo sapiens, UniProt Q12884).
T1 sequence (Q12884 1-760): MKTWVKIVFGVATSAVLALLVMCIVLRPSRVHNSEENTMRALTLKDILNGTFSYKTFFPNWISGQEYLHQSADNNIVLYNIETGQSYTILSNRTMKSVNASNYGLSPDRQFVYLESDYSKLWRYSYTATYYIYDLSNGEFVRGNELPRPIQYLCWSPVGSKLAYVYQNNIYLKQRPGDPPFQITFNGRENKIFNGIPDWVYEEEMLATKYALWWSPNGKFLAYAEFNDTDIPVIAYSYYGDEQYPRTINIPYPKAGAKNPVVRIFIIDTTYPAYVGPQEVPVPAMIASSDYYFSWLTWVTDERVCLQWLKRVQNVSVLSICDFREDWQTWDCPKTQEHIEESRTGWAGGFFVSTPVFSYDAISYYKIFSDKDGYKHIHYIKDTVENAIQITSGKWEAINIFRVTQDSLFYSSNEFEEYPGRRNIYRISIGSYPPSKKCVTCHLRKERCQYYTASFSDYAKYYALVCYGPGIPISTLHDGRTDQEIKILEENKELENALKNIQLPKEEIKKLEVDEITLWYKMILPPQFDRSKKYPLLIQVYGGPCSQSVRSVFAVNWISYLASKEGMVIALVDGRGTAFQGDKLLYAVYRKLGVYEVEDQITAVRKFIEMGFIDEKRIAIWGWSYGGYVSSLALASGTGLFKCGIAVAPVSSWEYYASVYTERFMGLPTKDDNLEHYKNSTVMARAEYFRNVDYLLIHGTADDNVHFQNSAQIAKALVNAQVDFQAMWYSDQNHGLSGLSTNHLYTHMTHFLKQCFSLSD
The experiment in a line: FAP IC50 using Z-Gly-Pro-7-amino-4-methylcoumarin (AMC). Type of data set: biochemical. The note with it: for Selectivity index (FAP/PREP): from IC50 FAP and IC50 PREP; for IC50: substrate Z-Gly-Pro-AMC. Here is the method:
(§1) The FAP IC50 values were measured using Z-Gly-Pro-7-amino-4-methylcoumarin (AMC). The PREP IC50 values were determined using N-succinyl-Gly-Pro-AMC.

Data set [7] deals with T2, PREP (Homo sapiens, UniProt P48147).
T2 sequence (P48147 1-710): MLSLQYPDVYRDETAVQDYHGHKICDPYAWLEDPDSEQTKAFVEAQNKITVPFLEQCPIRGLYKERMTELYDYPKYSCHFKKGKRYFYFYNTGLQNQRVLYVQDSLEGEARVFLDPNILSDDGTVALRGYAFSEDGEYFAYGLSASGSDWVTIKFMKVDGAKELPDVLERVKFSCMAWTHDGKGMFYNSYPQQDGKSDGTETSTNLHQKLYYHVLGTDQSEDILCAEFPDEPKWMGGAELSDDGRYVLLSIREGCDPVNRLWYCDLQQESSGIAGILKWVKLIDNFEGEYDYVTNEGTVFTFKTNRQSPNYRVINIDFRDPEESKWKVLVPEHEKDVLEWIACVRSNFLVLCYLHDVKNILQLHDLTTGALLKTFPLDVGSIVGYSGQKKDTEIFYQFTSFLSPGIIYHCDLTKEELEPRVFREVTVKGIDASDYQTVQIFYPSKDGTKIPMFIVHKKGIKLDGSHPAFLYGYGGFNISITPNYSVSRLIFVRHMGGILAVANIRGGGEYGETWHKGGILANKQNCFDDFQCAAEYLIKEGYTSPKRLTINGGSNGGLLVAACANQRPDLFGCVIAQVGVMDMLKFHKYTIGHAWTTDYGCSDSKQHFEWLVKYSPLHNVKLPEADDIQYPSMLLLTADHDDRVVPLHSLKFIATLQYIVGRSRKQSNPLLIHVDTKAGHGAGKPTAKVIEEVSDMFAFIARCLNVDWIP
The experiment in a line: PREP IC50 using N-succinyl-Gly-Pro-AMC. The format is biochemical. The note with it: substrate N-succinyl-Gly-Pro-AMC. Here is the method: as §1

Data set [8] deals with tumor. Description: Ex vivo activities of 68Ga-DATA.QS.PSMA and 68Ga-PSMA-11. As to conditions: ± SD. Type of data set: in vivo. The source says: The results of ex vivo investigations (FIGS. 41-43) are in agreement with the in vivo observations.
Data set [9] concerns LNCaP tumor. The note with it: NMRI nu/nu nude, mouse, in vivo.

Where “and” joins values, the source holds several entries; their conditions need not be identical. Equal entries are not always repeated. Where two headings read alike, the source gives them in different places.

Consider `O=C(O)CN1CCN(CC(=O)O)CCN(C(CCC(=O)NCCNc2c(NCCC(O)(P(=O)(O)O)P(=O)(O)O)c(=O)c2=O)C(=O)O)CC1.[68Ga+3]` (stereo not drawn) [^68Ga-NOTA.QS.PAM], for which, in [1] (rat, in vivo), the SUV femur is reported as 4.5±0.2 and the renal excretion entry is reported as “slightly reduced”.

For `O=C(O)CCC(NC(=O)NC(CCCCNc1c(NCCNC(=O)CCC(C(=O)O)N2CCN(CC(=O)O)CCN(CC(=O)O)CCN(CC(=O)O)CC2)c(=O)c1=O)C(=O)O)C(=O)O` (stereo not drawn) [DOTA.QS.PSMA], in data set [2], the “SUV Nieren” value is listed as 0.43, the “SUV Leber” value stood at 0.27 and the “SUV Tumor” value is recorded as 0.73.

Turning to `O=C(O)CCC(NC(=O)NC(CCCCNc1c(NCCCOCCOCCOCCCNC(=O)CCP(=O)(O)CN2CCN(CP(=O)(O)CCC(=O)NCCCOCCOCCOCCCNc3c(NCCCCC(NC(=O)NC(CCC(=O)O)C(=O)O)C(=O)O)c(=O)c3=O)CCN(CP(=O)(O)CCC(=O)NCCCOCCOCCOCCCNc3c(NCCCCC(NC(=O)NC(CCC(=O)O)C(=O)O)C(=O)O)c(=O)c3=O)CC2)c(=O)c1=O)C(=O)O)C(=O)O.[68Ga+3]` (stereo not drawn) [[^68Ga]Ga-TRAP.QS.PSMA], in data set [3], the “accumulation in the kidneys” value is given as “noticeably decreased” and the “accumulation in tumor tissue” value is “elevated”.

Turning to `O=C(O)CCc1ccc(O)c(CN(CCN(CC(=O)O)Cc2cc(CCC(=O)NCCCCCC(=O)NCCCC[C@H](NC(=O)N[C@@H](CCC(=O)O)C(=O)O)C(=O)O)ccc2O)CC(=O)O)c1` [PSMA-11, reference compound], in data set [2], the “SUV Nieren” value came to 4.71, the “SUV Leber” value was 0.25 and the “SUV Tumor” value amounted to 1.16.

As for `CN(CC(=O)O)C1(CCCCC(=O)NCCNc2c(NCCCCC(NC(=O)NC(CCC(=O)O)C(=O)O)C(=O)O)c(=O)c2=O)CN(CC(=O)O)CCN(CC(=O)O)C1` (stereo not drawn) [DATA.QS.PSMA], the 50% inhibitory concentration (IC50) in data set [4] was 51.5 nM and 51.1 nM.

For the compound `O=C(O)CCC(NC(=O)NC(CCCCNc1c(NCCNC(=O)CCC(C(=O)O)N2CCN(CC(=O)O)CCN(CC(=O)O)CCN(CC(=O)O)CC2)c(=O)c1=O)C(=O)O)C(=O)O.[68Ga+3]` (stereo not drawn) [^68Ga-DOTA.QS.PSMA], in data set [2], the “SUV Tumor” value is recorded as 0.73. The “off-target activity in the kidneys” value in data set [5] (compared with 68Ga-PSMA-11) is recorded as “significantly lower”. For the same compound, the “tumor activity (biological distribution)” value is reported as “slightly lower or equal” in data set [5] and “slightly lower or the same” in [5] (listed as [^68Ga]Ga-DOTA.QS.PSMA).

In data set [1] (68Ga-labeled, organ distribution, femur), `O=C(O)CN1CCN(CC(=O)O)CCN(CC(=O)NCCc2cncn2CC(O)(P(=O)(O)O)P(=O)(O)O)CCN(CC(=O)O)CC1.[68Ga+3]` [^68Ga-DOTA^Zol, reference compound] showed an SUV femur of 3.7±0.4.

In the case of `CN(CC(=O)O)C1(CCCCC(=O)NCCNc2c(NCCCCOc3ccc4nccc(C(=O)NCC(=O)N5CC(F)(F)C[C@H]5C#N)c4c3)c(=O)c2=O)CN(CC(=O)O)CCN(CC(=O)O)C1.[Ga+3]` [DATA5m.QS.FAPi - natGa], in data set [6], the “Selectivity index (FAP/PREP)” value is on record as 6714 and the IC50 was determined as 0.7 ± 0.1 nM. Also, the half-inhibitory concentration (IC50) in [7] stood at 4700 ± 300 nM.

For the compound `O=C([O-])CN(CCN(CC(=O)[O-])Cc1cc(CCC(=O)NCCCCCC(=O)NCCCC[C@H](NC(=O)N[C@@H](CCC(=O)O)C(=O)O)C(=O)O)ccc1[O-])Cc1cc(CCC(=O)O)ccc1[O-].[68Ga+3].[OH3+]` [^68Ga.PSMA 11, reference compound], the “Ex vivo activity LN” value in data set [8] (LN) is given as 0.66 ± 0.10 % ID/g. For the same compound, in data set [8] (blood), the “Ex vivo activity blood” value is recorded as 0.27 ± 0.03 % ID/g. Moreover, in data set [8] (bone), the “Ex vivo activity bone” value is on record as 0.15 ± 0.04 % ID/g. Besides, the “Ex vivo activity heart” value in [8] (heart) was 0.17 ± 0.03 % ID/g. For the same compound, the “Ex vivo activity kidney left” value in [8] (kidney left) came to 36.66 ± 5.05 % ID/g. Moreover, in data set [8] (kidney right), the “Ex vivo activity kidney right” value amounted to 36.72 ± 4.33 % ID/g. Also, in [8] (liver), the “Ex vivo activity liver” value is 0.23 ± 0.04 % ID/g. The “Ex vivo activity lung” value in data set [8] (lung) is given as 0.74 ± 0.04 % ID/g. Further, the “Ex vivo activity muscle” value in data set [8] (muscle) was 0.11 ± 0.03 % ID/g. Further, in data set [8] (salivary glands), the “Ex vivo activity salivary glands” value came out at 0.54 ± 0.11 % ID/g. In data set [8] (small intestine), the “Ex vivo activity small intestine” value came to 0.50 ± 0.14 % ID/g. For the same compound, in [8] (spleen), the “Ex vivo activity spleen” value is 3.12 ± 0.39 % ID/g. The “Ex vivo activity tumor” value in data set [8] (tumor) is recorded as 5.51 ± 0.38 % ID/g.

Turning to `N#C[C@@H]1CC(F)(F)CN1C(=O)CNC(=O)c1ccnc2ccc(OCCCCNc3c(NCCNC(=O)CN4CCN(CC(=O)O)CCN(CC(=O)O)CCN(CC(=O)O)CC4)c(=O)c3=O)cc12` [DOTA.QS.FAPi - uncomplexed], in data set [6], the “Selectivity index (FAP/PREP)” value turned out to be 6000 and it took 0.9 ± 0.1 nM to reach half-maximal inhibition (IC50). The half-inhibitory concentration (IC50) in data set [7] was 5400 ± 300 nM.

With `CN(CC(=O)O)C1(CCCCC(=O)NCCNc2c(NCCCCOc3ccc4nccc(C(=O)NCC(=O)N5CC(F)(F)C[C@H]5C#N)c4c3)c(=O)c2=O)CN(CC(=O)O)CCN(CC(=O)O)C1` [DATA^5m.QS.FAPi - uncomplexed], the “Selectivity index (FAP/PREP)” value in data set [6] is recorded as 2113. For the same compound, the IC50 in data set [6] came out at 0.8 ± 0.2 nM; in [7], 1690 ± 90 nM.

In data set [4] (Homo sapiens), `O=C(O)CC[C@H](NC(=O)N[C@@H](CCCCNC(=O)[C@H](Cc1ccc2ccccc2c1)NC(=O)[C@H]1CC[C@H](CNC(=O)CN2CCN(CC(=O)O)CCN(CC(=O)O)CCN(CC(=O)O)CC2)CC1)C(=O)O)C(=O)O` [PSMA-617] gave an IC50 of 15.1 nM. In data set [9], the “SUV Leber” value came out at 0.29, the “SUV Nieren” value amounted to 0.27 and the “SUV Tumor” value was 0.73.

Source of the values: patent publication US11833229B2, “Labeling precursors with squaric acid coupling” (SCV—SpezialChemikalienVertrieb GmbH, priority 2019, dated 2023).
